# Patent US5994361A, “Substituted purinyl derivatives with immunomodulating activity” (priority 1995, dated 1999)
# Experiments:
# [1] = test system: cytotoxic T lymphocytes, P815 target cells; experiment: Cytotoxic T lymphocytes (CTL) assay; assay type: cell-based, C57B1/6 mice and DBA/2 mice; settings: Mus musculus, P815, 120 h; at 10^-9 M; read-out: CTL activity, % increase compared to IL2 (100%)
# Experimental: Mixed lymphocyte reaction is an in vitro counterpart of the allograft rejection. Briefly, T cell response was obtained when cells taken from two inbred strains from two outbred individuals of any species were mixed in vitro in culture.
# After 4 days incubation, ^3 H thymidine uptake and cytotoxicity assay (CTL) were performed.
# 3 C57B1/6 mice and 3 DBA/2 mice wre killed and lymphocytes prepared using lympholyte M. The cell concentration was adjusted to 10×10^6 cell/ml for each lysis. DBA/2 cells were irradiated with 3000 Rads. 1 ml of the C57 cells+1 ml of the DBA/2 cells+1 ml of the drug at 3 different concentrations were incubated together for 5 days. Positive control was IL-2 at 15 ng/ml final. After 5 days, the CTL and MLR tests were carried out.
# P815 target cells were labelled with Cr^51. After labelling, the cells were resuspended to 5×10^4 cells/ml.
# 100 μl of target cells+100 μl Of T cells were incubated for 4 hrs and then 100 μl of supernatant was counted using a gamma counter.
# [2] = test system: spleen cells; experiment: Immunophenotyping on spleen cells, combination with 5 Fluorouracil; assay type: in vivo, C57/BLJ6 mice; settings: N = 4
# Experimental: (§1) After in vivo drugs analysis, the drugs were evaluated on whole blood for drug stability and toxicity. Furthermore, in vivo/ex vivo analysis was performed on normal and cyclophosphamide immunosuppressed animals plus 5Fu-treated animals. Cell immunophenotyping was performed on mouse-treatedblood and spleen. The following cell surface antigens were analyzed:
# (§2) CD3 (all T cells), CD4 (T helper/inducer, binds class II-restricted T cells), CD8a (cytotoxic T cells, CTL adhesion), CD11a (T, B, NK, some stem cells, CTL adhesion anti LFA-1α), MAC-1 (monocyte/macrophage), NK (natural killer cells), Ly5 (B cells), CD45 (all leukocytes, protein tyrosine phosphates), and TCR (T cell receptor).
# (§3) C57/BLJ6 mice (6-8 weeks old) were injected daily for 4 consecutive days, sacrificed at day 5 and immunophenotyping was performed on blood and spleen cells.
# (§4) The cells were washed twice in PBS, resuspended in 1 ml of RPMI 2% FBS, and incubated for 45 min. on ice with monoclonal antibody. The cells were washed once, fixed with 1% paraformaldehyde, then analyzed using XL Coulter® counter.
# [3] = test system: blood cells; experiment: Immunophenotyping on blood cells of compound #1 treated mice; assay type: in vivo, C57/BLJ6 mice; set-up: unit not given here; settings: N = 10; for CD8+ CD45+ (mean): daily 4 days
# Experimental: as §1, §2, §3, §4
# [4] = test system: T cell activity (ConA), spleen mononuclear leukocytes; experiment: Mitogenic proliferation on spleen cell suspension, T (ConA); assay type: cell-based, C57BL-6 mice; settings: at 10^-8 - 10^-5 (M); 4320 min
# Source text: Mitogenic lectin (mitogen) is a protein which binds and cross-links specific cells surface carbohydrate determinants, and will polyclonally stimulate lymphoid cells. Lymphocyte activation by either antigens or mitogens results in intracellular changes and the subsequent development into a lymphoblast. Mitogenic stimulation of lymphocytes in vitro is believed to mimic the series of events which occur in vivo following their stimulation by specific antigens. PHA, ConA, and PWM, LPS mitogens can be used as a measurement of T cell and B cell activity, respectively.
# Briefly, spleen mononuclear leukocytes from C57BL-6 mice were incubated in the presence or absence of mitogens with or without tested drugs. After 72 hours or 5 days, ^3 H thymidine incorporation was recorded as an indication of cell transformation and proliferation.
# 100 μl of a suspension of 2×10^6 cells/ml (2×10^5 cells/well) were incubated in presence of PHA or ConA or PWM or LPS at the following concentrations:
# PHA=0.01% final concentration-0.001%
# Cells were incubated in presence or absence of drugs for 72 hours. 0.5 or 1 μCi of tritiated thymidine (^3 H) was added per well the last 18 or 6 hours of incubation respectively. Cells were harvested and counted on a Beta counter.
# [5] = Body weight, compound #1 with Cytoxan 20 mg/kg (Example 93); assay type: in vivo; settings: compound #1 + CTX 20 mg/kg
# Experimental: (§5) Combination of compound #1 (25 and 50 mg/kg i.p. daily) plus CTX (20 mg/kg i.v. single bolus) was evaluated against day 4 established DA-3 tumors.
# [6] = test system: spleen cells; experiment: Immunophenotyping on spleen cells, combination with cyclophosphamide; assay type: in vivo, C57/BLJ6 mice; settings: in combination with cyclophosphamide
# Experimental: as §1, §2, §3, §4
# [7] = test system: spleen cells; experiment: Immunophenotyping on spleen cells of compound #1 treated mice; assay type: in vivo, C57/BLJ6 mice; settings: N = 10
# Experimental: as §1, §2, §3, §4
# [8] = test system: DA-3 mammary carcinoma; experiment: Compound #1 with Cytoxan 20 mg/kg against established DA-3 mammary carcinoma (Example 93); assay type: in vivo; settings: compound #1 25 mg/kg i.p. daily + CTX 20 mg/kg i.v.
# Experimental: as §5
# [9] = test system: blood cells; experiment: Immunophenotyping on blood cells, combination with 5 Fluorouracil; assay type: in vivo, C57/BLJ6 mice; settings: N = 4
# Experimental: as §1, §2, §3, §4
# [10] = Body weight, compound #1 with Cytoxan 28 mg/kg (Example 94); assay type: in vivo, Balb/c mice; set-up: body weight: unit not given here
# Experimental: In another experiment, the CTX treatment was prolonged. Balb/c mice were injected s.c. with 5×10^5 DA-3 tumor cells at day 0. At day 4 when established tumors appeared, tumor-bearing animals were randomized (n=11/gr.) and injected with CTX (at 28 mg/kg) i.v. bolus injections at days 4, 11, and 18. […]
# [11] = test system: blood cells; experiment: Immunophenotyping on blood cells, combination with cyclophosphamide; assay type: in vivo, C57/BLJ6 mice; settings: N = 4
# Experimental: as §1, §2, §3, §4
smiles,measurement,setting,value
"CN(C)c1ncnc2c1ncn2CCCCCOC(=O)N[C@H](CCCNC(=N)N)C(=O)O [Compound #1, N,N-Dimethylaminopurinyl Pentoxycarbonyl D-Arginine]",activation at 0.001 µM,[1],> 80%
same,CD4+ CD45- (mean),[2]; 5 FU + cpd #1 25 mg/kg,13.19
same,NK+ (mean),[2]; 5 FU + cpd #1 25 mg/kg,3.32
same,CD4+ CD45- (mean),[2]; 5 FU + cpd #1 50 mg/kg,12.06
same,NK+ (mean),[2]; 5 FU + cpd #1 50 mg/kg,3.17
same,CD11b+ (mean),[3]; 25 mg/kg,13.71
same,NK+ CD3+ (mean),[3]; 25 mg/kg,5.84
same,NK+ CD3- (mean),[3]; 25 mg/kg,5.90
same,CD8+ CD45+ (mean),[3]; 25 mg/kg,10.11
same,CD11b+ (mean),[3]; 50 mg/kg,9.68
same,NK+ CD3+ (mean),[3]; 50 mg/kg,3.25
same,NK+ CD3- (mean),[3]; 50 mg/kg,8.14
same,CD8+ CD45+ (mean),[3]; 50 mg/kg,8.65
same,T (ConA) mitogenic proliferation,[4],2 - 4 ×
same,body weight loss,[5],No significant body weight loss
same,"Immunophenotyping, spleen",[6],no effect
same,Ly5 (mean),[7]; 25 mg/kg,54.08
same,TCR+ (mean),[7]; 25 mg/kg,39.78
same,Ly5 (mean),[7]; 50 mg/kg,50.35
same,TCR+ (mean),[7]; 50 mg/kg,45.09
same,anti-tumor effect,[8],no significant effect
same,CD8+ CD45+ (mean),[9]; 5 FU + cpd #1 25 mg/kg,10.11
same,NK+ (mean),[9]; 5 FU + cpd #1 25 mg/kg,3.58
same,CD8+ CD45+ (mean),[9]; 5 FU + cpd #1 50 mg/kg,8.65
same,NK+ (mean),[9]; 5 FU + cpd #1 50 mg/kg,4.12
same,body weight,"[10]; BCH-1393 50 mg/kg + CTX 28 mg/kg, day 7",18.2
same,body weight,"[10]; BCH-1393 50 mg/kg + CTX 28 mg/kg, day 9",19.1
same,body weight,"[10]; BCH-1393 50 mg/kg + CTX 28 mg/kg, day 11",19.0
same,body weight,"[10]; BCH-1393 50 mg/kg + CTX 28 mg/kg, day 14",18.6
same,body weight,"[10]; BCH-1393 50 mg/kg + CTX 28 mg/kg, day 16",19.5
same,body weight,"[10]; BCH-1393 50 mg/kg + CTX 28 mg/kg, day 18",19.3
same,body weight,"[10]; BCH-1393 50 mg/kg + CTX 28 mg/kg, day 21",18.9
same,body weight,"[10]; BCH-1393 50 mg/kg + CTX 28 mg/kg, day 23",18.8
same,body weight,"[10]; BCH-1393 50 mg/kg + CTX 28 mg/kg, day 25",19.5
same,body weight,"[10]; BCH-1393 50 mg/kg + CTX 28 mg/kg, day 28",19.4
same,body weight,"[10]; BCH-1393 50 mg/kg + CTX 28 mg/kg, day 30",19.3
same,body weight,"[10]; BCH-1393 50 mg/kg Ip (Days 3-28) + CTX 28 mg/kg Iv (days 4, 11, 18), day 4",18.7
same,body weight loss,[10]; compound #1 50 mg/kg + CTX 28 mg/kg,No significant body weight loss
same,body weight,"[10]; single agent (CTX 28 mg/kg days 4, 11, 18, or BCH-1393 50 mg/kg days 3-28), day 4",18.6
same,body weight,"[10]; single agent (CTX 28 mg/kg or BCH-1393 50 mg/kg), day 7",19.1
same,body weight,"[10]; single agent (CTX 28 mg/kg or BCH-1393 50 mg/kg), day 9",19.3
same,body weight,"[10]; single agent (CTX 28 mg/kg or BCH-1393 50 mg/kg), day 11",18.9
same,body weight,"[10]; single agent (CTX 28 mg/kg or BCH-1393 50 mg/kg), day 14",18.9
same,body weight,"[10]; single agent (CTX 28 mg/kg or BCH-1393 50 mg/kg), day 16",19.5
same,body weight,"[10]; single agent (CTX 28 mg/kg or BCH-1393 50 mg/kg), day 18",18.9
same,body weight,"[10]; single agent (CTX 28 mg/kg or BCH-1393 50 mg/kg), day 21",19.3
same,body weight,"[10]; single agent (CTX 28 mg/kg or BCH-1393 50 mg/kg), day 23",19.3
same,body weight,"[10]; single agent (CTX 28 mg/kg or BCH-1393 50 mg/kg), day 25",19.5
same,body weight,"[10]; single agent (CTX 28 mg/kg or BCH-1393 50 mg/kg), day 28",19.7
same,body weight,"[10]; single agent (CTX 28 mg/kg or BCH-1393 50 mg/kg), day 30",20.0
same,CP8+ CD45+ (mean),[11]; CY + cpd #1 25 mg/kg,13.25
same,CP8+ CD45+ (mean),[11]; CY + cpd #1 50 mg/kg,20.8
